Test results as given in article PMC12889028, “Discovery and biological evaluation of novel N-aryl-N′-methylbenzodrazides against Schistosoma japonicum in vitro and in vivo” (Microbiology Spectrum, 2025).
Like-named read-outs stand apart in the source and are kept apart here.

Assays:
[1] = system: healthy mice; experiment: Acute oral toxicity; format: in vivo; conditions: single oral dose, healthy ICR mice
Description: (§1) ICR mice (n = 10/group), aged 6 to 8 weeks, received a single oral dose of compounds 5, 18, and 41 (732–2,234 mg/kg). LD50 values were determined by Probit analysis (SPSS 26.0).

[2] = Acute oral toxicity; format: in vivo; conditions: ICR, mouse, in vivo, po, single oral dose, healthy ICR mice
Description: as §1

[3] = system: HepG2 (human liver cancer) cells; experiment: Cytotoxicity MTT assay, HepG2; format: cell-based; conditions: Homo sapiens, HepG2, 48 h incubation
Description: (§2) The cytotoxicity of compounds 5, 18, and 41 against human liver cancer (HepG2) and human breast cancer (MCF-7) cell lines in vitro was evaluated using the MTT assay, with cisplatin as a positive control. Cells were plated into 96-well plates and incubated in 100 μL of Dulbecco’s modified Eagle’s medium for 24 h. Test compounds at specified final concentrations were then added to the culture medium. After 48 h incubation, MTT dye (10 μL, 0.5 mg/mL) was added, and cells were incubated for an additional 4 h at 37°C in 5% CO2. Formazan crystals were dissolved in 100 μL DMSO per well, and absorbance at 570 nm (OD570) was measured using an ELx800 microplate reader (Bio-Tek, Winooski, VT, USA) with background subtraction. Cytotoxicity was expressed as IC50 (the concentration causing 50% reduction in cell growth compared to untreated controls). Experiments were performed in triplicate, with results presented as mean ± standard deviation.

[4] = system: MCF-7 (human breast cancer) cells; experiment: Cytotoxicity MTT assay, MCF-7; format: cell-based; conditions: Homo sapiens, MCF7, 48 h incubation
Description: as §2

[5] = system: adult worms of S. japonicum (Chinese strain); experiment: microbe, parasite or virus in culture; conditions: for mortality at 100 µM / LC50: Schistosoma japonicum; for LC50: read-out: LC50 (72 h)
Description: S. japonicum cercariae (Chinese strain) were acquired from infected Oncomelania hupensis snails (Wuxi Insect Vector Biology Co., Ltd., China) ([28]). ICR mice (6–8 weeks, 22–25 g; Hunan SJA Laboratory Animal Co., Ltd., China) were percutaneously infected via abdominal exposure to 60 ± 5 cercariae. Adult schistosomes were perfused from the hepatic portal system at 35 dpi using a modified Duvall and DeWitt method ([29]). Animals were housed under controlled conditions (22°C ± 1°C, 12 h light/dark cycle) with ad libitum access to feed and water.
Adult S. japonicum worms isolated from ICR mice were maintained in sterile culture medium (2.0 mL) comprising 77% RPMI 1640 (Lanzhou Bailing Biotech Co., Ltd.; pH 7.5, HEPES-buffered), 20% heat-inactivated fetal bovine serum (Lanzhou Minhai Bio-Engineering Co., Ltd.), and 3% penicillin-streptomycin (100×; 10,000 U/mL penicillin, 10,000 μg/mL streptomycin; New Cell & Molecular Biotech Co., Ltd., China). Incubation was performed at 37°C under 5% CO2. Test compounds were dissolved in DMSO as 0.1 M stock solutions; 2.0 μL aliquots were added to worm-containing media (final concentration: 100 μM in 0.1% DMSO). Negative controls received equivalent volumes of vehicle (0.1% DMSO in RPMI 1640). Parasite viability (motor activity, tegumental integrity, survival) was assessed every 12 h for 72 h using an Olympus CKX53 inverted microscope (n ≥ 3 independent replicates).

[6] = system: adult S. japonicum worms; experiment: SEM examination in vitro of tegumental damage; format: cell-based, Schistosoma japonicum; conditions: 100 μM
Description: Adult S. japonicum worms (male/female) underwent standardized fixation after in vitro exposure to compounds 5, 18, and 41 over a period of 12 h. First, the samples were immersed in 2.5% glutaraldehyde (prepared with 40 mL 0.2 M phosphate-buffered saline [PBS, pH 7.4], 5 mL 50% glutaraldehyde stock, and 55 mL ultrapure water) at 4°C for 24 h. After triple washes in PBS for 5 min each, worms were rinsed with deionized water for 10 min. The next dehydration sequence included ethanol gradient (50%, 70%, 80%, 90%, 100%; 5 min/step) and tert-butanol gradient (50%, 70%, 90%, 100%; 10 min/step). The worms were freeze-dried, directly sputter-covered with a thin gold layer using a Sputter Coater, and imaged using a scanning electron microscope (Quanta 450).

[7] = Serum hepatic/renal function profiling of infected, treated mice; format: in vivo, ICR mice; conditions: for Serum GGT: normal range 1–15 U/L; for Serum TBIL: normal range 1.7–15.4 µM; for Serum BUN: normal range 4.9–10.4 mM; for Serum ALT: normal range 28–132 U/L; for Serum AST: normal range 59–247 U/L
Description: Following maturation, Schistosoma parasites initiate oviposition, with a proportion of eggs migrating via the circulatory system to hepatic tissues. This ectopic deposition induces granuloma formation that subsequently elicits a cascade of immune-mediated pathologies, ultimately compromising hepatic and renal functions in murine models. To evaluate therapeutic efficacy, retro-orbital blood sampling was performed for comprehensive hepatic function profiling, enabling systematic assessment of pharmacological impacts on schistosomiasis-associated organ damage.
Lead compounds 5, 18, and 41 (100 mg/kg) were orally administered once daily for 5 consecutive days to infected mice (n = 6/group) during two therapeutic windows: (i) Juvenile stage: treatment initiated at 9 dpi, terminal sacrifice at 45 dpi; (ii) adult stage: treatment initiated at 35 dpi, terminal sacrifice at 45 dpi. Positive controls received praziquantel (PZQ, 100 mg/kg/day ×5 days); negative controls received PBS (0.3 mL). Mice treated at 9 dpi were euthanized 36 days post-treatment; those treated at 35 dpi were euthanized 10 days post-treatment. Adult worms were perfused from the hepatic portal system and mesenteric veins. Parasite burden was quantified by worm enumeration, and worm burden reduction (WBR) was calculated: […]

[8] = system: S. japonicum (Chinese strain); experiment: In vivo antischistosomal assay in infected mice (worm burden, worm morphology, liver eggs); design: species or system Schistosoma japonicum in ICR mice; conditions: mice, oral 100 mg/kg/day for 5 days; for Number of worms, Adult: adult stage (treatment from 35 dpi, sacrifice 45 dpi); for Worm burden reduction (WBR), Juvenile: juvenile stage (from 9 dpi); for Number of worms, Juvenile: juvenile stage (treatment from 9 dpi, sacrifice 45 dpi)
Description: Lead compounds 5, 18, and 41 (100 mg/kg) were orally administered once daily for 5 consecutive days to infected mice (n = 6/group) during two therapeutic windows: (i) Juvenile stage: treatment initiated at 9 dpi, terminal sacrifice at 45 dpi; (ii) adult stage: treatment initiated at 35 dpi, terminal sacrifice at 45 dpi. Positive controls received praziquantel (PZQ, 100 mg/kg/day ×5 days); negative controls received PBS (0.3 mL). Mice treated at 9 dpi were euthanized 36 days post-treatment; those treated at 35 dpi were euthanized 10 days post-treatment. Adult worms were perfused from the hepatic portal system and mesenteric veins. Parasite burden was quantified by worm enumeration, and worm burden reduction (WBR) was calculated:
WBR (%)=[1−Mean worm count (treated) / Mean worm count (control)]×100% .

[9] = system: Schistosoma mansoni; design: method as in PMID 25583726; conditions: S. mansoni mouse model; cited from earlier work
[10] = 24 h, read-out: Mortality (%) 24 h, 100 μM, 24 h, adult worms in vitro
[11] = 36 h, read-out: Mortality (%) 36 h, 100 μM, 36 h, adult worms in vitro
[12] = 48 h, read-out: Mortality (%) 48 h, 100 μM, 48 h, adult worms in vitro
[13] = 72 h, read-out: Mortality (%) 72 h, 100 μM, 72 h, adult worms in vitro
[14] = infected mice treated in adult stage
[15] = infected mice treated in juvenile stage

Compound: CN(NC(=O)c1ccc(Cl)c(Cl)c1)c1ccc(Br)cc1 [Compound 5]
- LD50 [1]: >2,000 mg/kg
- LogLD50 [1]: >3.30
- LD50 [2]: 1400 mg/kg
- IC50 [3]: 23.2 ± 1.43 µM
- IC50 [4]: 43.8 ± 2.53 µM
- Mortality (%) 72 h ([5]; 100 μM, 72 h, adult worms in vitro): 100%
- mortality at 100 µM [5, 10]: 35%
- mortality at 100 µM [5, 11]: 65%
- mortality at 100 µM [5, 12]: 95%
- LC50 ([5]; 72 h): 80.2 ± 1.8 µM
- mortality at 100 µM [5, 13]: > 80%
- Tegumental damage (SEM), female adult worms ([6]; female worms): full-thickness sucker ulceration with stromal collapse, atrophic transformation with coalescing vesicles, and advanced tissue disintegration with tegumental wrinkling
- Tegumental damage (SEM), male adult worms ([6]; male worms): complete spine ablation in gynecophoric canals, suctorial constriction, and muscular layer protrusion through disrupted tegument
- Serum GGT [7, 14]: 0.73 ± 0.40 U/L
- Serum TBIL [7, 14]: 6.70 ± 3.39 µM
- Serum BUN [7, 14]: 8.80 ± 0.96 mM
- Serum ALT [7, 14]: 313.33 ± 166.21 U/L
- Serum AST [7, 14]: 527.33 ± 303.66 U/L
- Serum GGT [7, 15]: 0.73 ± 0.06 U/L
- Serum TBIL [7, 15]: 7.48 ± 1.64 µM
- Serum BUN [7, 15]: 9.83 ± 1.43 mM
- Serum ALT [7, 15]: 357.67 ± 176.92 U/L
- Serum AST [7, 15]: 602.33 ± 309.33 U/L
- Nephrotoxicity ([7]; infected treated mice, judged from BUN): without observable nephrotoxicity
- Morphology of worms after treatment in vivo, adult stage ([8]; adult stage): making the males thicker and shorter
- Worm burden reduction (WBR), Adult ([8]; adult stage (from 35 dpi), 100 mg/kg/day): 34%
- Number of worms, Adult [8]: 29
- Morphology of worms after treatment in vivo, juvenile stage ([8]; juvenile stage): marked stunting of male schistosomes
- Worm burden reduction (WBR), Juvenile ([8]; 100 mg/kg/day): 25%
- Number of worms, Juvenile [8]: 30

Compound: O=C(Nc1ccc(Cl)c(Cl)c1)Nc1ccc(Cl)c(Cl)c1 [MMV665852, reference compound]
- mortality at 100 µM [5, 10]: 100%
- mortality at 100 µM [5, 11]: 100%
- mortality at 100 µM [5, 12]: 100%
- LC50 ([5]; 72 h): 12.5 ± 2.36 µM
- mortality at 100 µM [5, 13]: 100%
- In vivo antischistosomal efficacy (worm burden reduction) [9]: minimal antischistosomal efficacy
- Number of worms, Adult [8]: 36
- Worm burden reduction (WBR), Juvenile [8]: 20%
- Number of worms, Juvenile [8]: 32
